From patent US10022387B2, “Aza-heteroaryl compounds as PI3K-gamma inhibitors” (Incyte Corporation, priority 2015, dated 2018)

molecular target: PI3Kδ (p110δ/p85α) Recombinant Human Protein (Homo sapiens (Human), UniProt O00329); assay: PI3Kδ Scintillation Proximity Assay; type: biochemical; conditions: 20 μM PIP2, 2 μM ATP, 3.4 nM PI3Kδ, 120 min; read-out: PI3K-delta SPA IC50
Description: [γ-^33P]ATP (10 mCi/mL) and Wheat Germ Agglutinin (WGA) YSi SPA Scintillation Beads was purchased from Perkin-Elmer (Waltham, Mass.). Lipid kinase substrate, D-myo-Phosphatidylinositol 4,5-bisphosphate (PtdIns(4,5)P2)D (+)-sn-1,2-di-O-octanoylglyceryl, 3-O-phospho linked (PIP2), CAS 204858-53-7, was purchased from Echelon Biosciences (Salt Lake City, Utah). PI3Kδ (p110δ/p85α) Recombinant Human Protein was purchased from Eurofins (St. Charles, Mo.). ATP, MgCl2, DTT, EDTA, MOPS and CHAPS were purchased from Sigma-Aldrich (St. Louis, Mo.).
The kinase reaction was conducted in polystyrene 384-well Greiner Bio-one white plate from Thermo Fisher Scientific in a final volume of 25 μL. Inhibitors were first diluted serially in DMSO and added to the plate wells before the addition of other reaction components. The final concentration of DMSO in the assay was 2%. The PI3Kδ assay was carried out at room temperature in 20 mM MOPS, pH 6.7, 10 mM MgCl2, 5 mM DTT and CHAPS 0.03%. Reactions were initiated by the addition of ATP, the final reaction mixture consisted of 20 μM PIP2, 2 μM ATP, 0.5 μCi [γ-^33P] ATP, 3.4 nM PI3Kδ. […] After the plate sealing, plates were shaken overnight at room temperature and centrifuged at 1500 rpm for 10 min, the radioactivity of the product was determined by scintillation counting on Topcount (Perkin-Elmer). […]

Sequence of PI3Kδ (p110δ/p85α) Recombinant Human Protein (O00329 whole entry): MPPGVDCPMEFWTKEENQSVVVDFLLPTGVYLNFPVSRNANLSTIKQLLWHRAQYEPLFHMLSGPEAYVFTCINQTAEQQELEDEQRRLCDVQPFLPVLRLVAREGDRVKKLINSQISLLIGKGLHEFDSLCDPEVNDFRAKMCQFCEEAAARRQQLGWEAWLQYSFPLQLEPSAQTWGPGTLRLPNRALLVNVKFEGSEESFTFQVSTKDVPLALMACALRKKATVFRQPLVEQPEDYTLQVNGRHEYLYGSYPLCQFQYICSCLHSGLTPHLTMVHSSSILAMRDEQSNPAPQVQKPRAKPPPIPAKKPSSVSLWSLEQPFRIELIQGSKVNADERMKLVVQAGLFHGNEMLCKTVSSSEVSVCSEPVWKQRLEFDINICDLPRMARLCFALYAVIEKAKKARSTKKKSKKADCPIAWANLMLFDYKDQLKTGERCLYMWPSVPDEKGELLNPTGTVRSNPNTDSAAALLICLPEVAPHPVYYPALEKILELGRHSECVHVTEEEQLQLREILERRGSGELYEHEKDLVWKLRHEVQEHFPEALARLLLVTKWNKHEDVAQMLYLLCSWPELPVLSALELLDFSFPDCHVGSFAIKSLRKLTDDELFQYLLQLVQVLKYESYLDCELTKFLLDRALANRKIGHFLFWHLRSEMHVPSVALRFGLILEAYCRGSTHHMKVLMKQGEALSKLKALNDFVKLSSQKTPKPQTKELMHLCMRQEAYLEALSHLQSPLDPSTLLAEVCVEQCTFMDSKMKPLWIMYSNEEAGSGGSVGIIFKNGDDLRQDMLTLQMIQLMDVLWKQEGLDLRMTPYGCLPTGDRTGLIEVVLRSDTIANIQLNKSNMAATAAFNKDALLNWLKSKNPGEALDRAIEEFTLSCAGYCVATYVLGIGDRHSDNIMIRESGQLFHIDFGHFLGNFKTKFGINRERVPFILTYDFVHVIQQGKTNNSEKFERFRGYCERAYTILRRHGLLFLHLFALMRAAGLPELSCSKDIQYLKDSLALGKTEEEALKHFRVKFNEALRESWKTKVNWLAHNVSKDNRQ
Sequence of PI3Kδ (p110δ/p85α) Recombinant Human Protein (P27986 whole entry partner): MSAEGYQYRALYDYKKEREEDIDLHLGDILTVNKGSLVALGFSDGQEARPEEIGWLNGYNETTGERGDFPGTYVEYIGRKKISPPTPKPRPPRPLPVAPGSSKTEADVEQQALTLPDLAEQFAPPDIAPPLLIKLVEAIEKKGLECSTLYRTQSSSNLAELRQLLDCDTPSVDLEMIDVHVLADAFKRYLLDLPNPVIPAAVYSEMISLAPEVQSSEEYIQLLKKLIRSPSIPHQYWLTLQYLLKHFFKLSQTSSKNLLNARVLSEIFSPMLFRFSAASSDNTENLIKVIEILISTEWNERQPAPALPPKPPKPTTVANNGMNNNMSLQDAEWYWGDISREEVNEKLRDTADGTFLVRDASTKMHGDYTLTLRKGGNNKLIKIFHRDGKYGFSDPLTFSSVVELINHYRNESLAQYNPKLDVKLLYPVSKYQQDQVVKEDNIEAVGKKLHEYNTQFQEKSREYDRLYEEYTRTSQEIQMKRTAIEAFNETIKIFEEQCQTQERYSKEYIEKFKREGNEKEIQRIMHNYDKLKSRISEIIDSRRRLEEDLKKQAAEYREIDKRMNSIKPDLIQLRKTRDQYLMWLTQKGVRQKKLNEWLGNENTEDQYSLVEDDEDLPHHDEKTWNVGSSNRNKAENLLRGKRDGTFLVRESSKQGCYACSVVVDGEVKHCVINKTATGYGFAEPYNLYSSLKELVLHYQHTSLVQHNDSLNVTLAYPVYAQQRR

| SMILES | IC50 [nM] |
| --- | --- |
| CCS(=O)(=O)Nc1cncc(-c2ccc3nc(-c4nc5ccccc5[nH]4)oc3c2)c1 [Example 18, N-(5-(2-(1H-Benzo[d]imidazol-2-yl)benzo[d]oxazol-6-yl)pyridin-3-yl)ethanesulfonamide] | < 1000 |

tested on: Phosphorylated Ribosomal Protein S6 (RPS6) in THP-1 cells; assay: THP-1 RPS6 ELISA Assay; type: cell-based; conditions: Homo sapiens, 2 hours with compound, 10 nM MCP-1 for 15 minutes, read-out: THP p-RPS6 ELISA IC50
Description: To measure the Phosphorylated Ribosomal Protein S6 (RPS6) in cell lysates, THP-1 cells (Human Acute Monocytic Leukemia) are purchased from ATCC (Manassas, Va.) and maintained in RPMI with 10% FBS (Gibco/Life Technologies, Carlsbad, Calif.). For the assay, THP-1 cells are serum starved overnight in RPMI, then plated in RPMI (2×10^5 cells/well in 90 μL) into 96-well flat-bottom tissue culture treated plates (Corning, Corning, N.Y.), in the presence or absence of a concentration range of test compounds. Covered plates are incubated for 2 hours at 37° C., 5% CO2 then treated with or without 10 nM MCP-1 (MYBioSource, San Diego, Calif.) for 15 minutes at 37° C., 5% CO2. Plates are centrifuged at 1600 RPM and supernatants are removed. Cells are lysed in Lysis Buffer (Cell Signaling, Danvers, Mass.) with Protease Inhibitor (Calbiochem/EMD, Germany), PMSF (Sigma, St. Louis, Mo.), HALTS (Thermo Fisher, Rockford, Ill.) for 30 min on wet ice. Cell lysates are frozen at −80° C. before testing. The lysates are tested in the Human/Mouse/Rat Phospho-RPS6 ELISA (R&D Systems, Inc. Minn, Minn.). The plate is measured using a microplate reader (SpectraMax M5—Molecular Devices, LLC Sunnyvale, Calif.) set to 450 nm with a wavelength correction of 540. IC50 determination is performed by fitting the curve of inhibitor percent inhibition versus the log of the inhibitor concentration using the GraphPad Prism 5.0 software.

| IC50 [nM] | SMILES |
| --- | --- |
| < 5000 | N#Cc1cncc(-c2ccc3nc(-c4nc5ccccc5[nH]4)oc3c2)c1 [Example 35, 5-(2-(1H-Benzo[d]imidazol-2-yl)benzo[d]oxazol-6-yl)nicotinonitrile] |
| < 1000 | CCS(=O)(=O)Nc1cc(-c2ccc3nc(-c4nc5ccccc5[nH]4)oc3c2)cnc1OC [Example 79, N-(5-(2-(1H-Benzo[d]imidazol-2-yl)benzo[d]oxazol-6-yl)-2-methoxypyridin-3-yl)ethanesulfonamide bis(trifluoroacetate)] |
| ≥ 5000 | CCS(=O)(=O)Nc1cc(-c2ccc3nc(-c4nc5ccccc5[nH]4)oc3c2)cc(F)c1OC [Example 80, N-(5-(2-(1H-Benzo[d]imidazol-2-yl)benzo[d]oxazol-6-yl)-3-fluoro-2-methoxyphenyl)ethanesulfonamide bis(trifluoroacetate)] |
| < 1000 | O=S(=O)(Nc1cncc(-c2ccc3nc(-c4nc5ccccc5[nH]4)oc3c2)c1)c1ccc(F)cc1 [Example 17, N-(5-(2-(1H-Benzo[d]imidazol-2-yl)benzo[d]oxazol-6-yl)pyridin-3-yl)-4-fluorobenzenesulfonamide] |
| < 5000 | CCS(=O)(=O)Nc1cc(-c2ccc3nc(-c4nc5c([nH]4)CCCC5)oc3c2)cnc1OC [Example 66, N-(2-Methoxy-5-(2-(4,5,6,7-tetrahydro-1H-benzo[d]imidazol-2-yl)benzo[d]oxazol-6-yl)pyridin-3-yl)ethanesulfonamide] |
| ≥ 5000 | c1ccc(Cn2cc(-c3ccc4nc(-c5nc6ccccc6[nH]5)oc4c3)cn2)cc1 [Example 48, 2-(1H-Benzimidazol-2-yl)-6-(1-benzyl-1H-pyrazol-4-yl)-1,3-benzoxazole] |
| < 1000 | CN(C)S(=O)(=O)Nc1cc(-c2ccc3nc(-c4nc5ccccc5[nH]4)oc3c2)cnc1F [Example 23, N′-{5-[2-(1H-Benzimidazol-2-yl)-1,3-benzoxazol-6-yl]-2-fluoropyridin-3-yl}-N,N-dimethylsulfamide] |
| < 1000 | Cc1ncc(-c2ccc3nc(-c4nc5ccccc5[nH]4)oc3c2)cc1NS(=O)(=O)c1ccc(F)cc1 [Example 28, N-(5-(2-(1H-Benzo[d]imdiazol-2-yl)benzo[d]oxazol-6-yl)-2-methylpyridin-3-yl)-4-fluorobenzene-sulfonamide] |
| < 1000 | CN(C)S(=O)(=O)Nc1cncc(-c2ccc3nc(-c4ncc[nH]4)oc3c2)c1 [Example 41, N′-{5-[2-(1H-Imidazol-2-yl)-1,3-benzoxazol-6-yl]pyridin-3-yl}-N,N-dimethylsulfamide] |
| < 1000 | Cc1ncc(-c2ccc3nc(-c4nc5ccccc5[nH]4)oc3c2)cc1NS(=O)(=O)N(C)C [Example 22, N′-{5-[2-(1H-Benzimidazol-2-yl)-1,3-benzoxazol-6-yl]-2-methylpyridin-3-yl}-N,N-dimethylsulfamide] |
| < 5000 | CCS(=O)(=O)Nc1cncc(-c2ccc3nc(-c4ncc[nH]4)oc3c2)c1 [Example 40, N-(5-(2-(1H-Imidazol-2-yl)benzo[d]oxazol-6-yl)pyridin-3-yl)ethanesulfonamide] |
| < 1000 | O=S(=O)(CC(F)(F)F)Nc1cc(-c2ccc3nc(-c4nc5ccccc5[nH]4)oc3c2)cnc1F [Example 75, N-(5-(2-(1H-Benzo[d]imidazol-2-yl)benzo[d]oxazol-6-yl)-2-fluoropyridin-3-yl)-2,2,2-trifluoroethanesulfonamide bis(trifluoroacetate)] |
| < 1000 | Cc1nc(-c2nc3ccc(-c4cncc(C(O)C(F)(F)F)c4)cc3o2)[nH]c1C (stereo not shown) [Example 67, 1-(5-(2-(4,5-Dimethyl-1H-imidazol-2-yl)benzo[d]oxazol-6-yl)pyridin-3-yl)-2,2,2-trifluoroethanol bis(trifluoroacetate)] |
| ≥ 5000 | CC(C)S(=O)(=O)Nc1cncc(-c2ccc3nc(-c4nc5ccccc5[nH]4)oc3c2)c1 [Example 24, N-(5-(2-(1H-Benzo[d]imidazol-2-yl)benzo[d]oxazol-6-yl)pyridin-3-yl)propane-2-sulfonamide] |

| SMILES | IC50 [nM] |
| --- | --- |
| CCS(=O)(=O)Nc1cncc(-c2ccc3nc(-c4nc5ccccc5[nH]4)oc3c2)c1 [Example 18, N-(5-(2-(1H-Benzo[d]imidazol-2-yl)benzo[d]oxazol-6-yl)pyridin-3-yl)ethanesulfonamide] | ≥ 5000 |
